Source: patent US20130245355A1, “3-HETARYL-SUBSTITUTED PYRROLO[2,3 B]PYRIDINE DERIVATIVES AS PDK1 INHIBITORS” (MERCK PATENT GMBH, priority 2010, published 2013)

Legend:
[1] = target: T1, PDK1 (Homo sapiens, UniProt O15530); test: Test for the inhibition of PDK1 (flashplate, 33P-ATP); conditions: His6-PDK1 (1-50) 3.4 nM, 4 μM ATP, 30° C., 60 min; read-out: IC50 [PDK1] biochemical
T1 construct: His6 (N)
T1 sequence (O15530 51-556 limits assumed): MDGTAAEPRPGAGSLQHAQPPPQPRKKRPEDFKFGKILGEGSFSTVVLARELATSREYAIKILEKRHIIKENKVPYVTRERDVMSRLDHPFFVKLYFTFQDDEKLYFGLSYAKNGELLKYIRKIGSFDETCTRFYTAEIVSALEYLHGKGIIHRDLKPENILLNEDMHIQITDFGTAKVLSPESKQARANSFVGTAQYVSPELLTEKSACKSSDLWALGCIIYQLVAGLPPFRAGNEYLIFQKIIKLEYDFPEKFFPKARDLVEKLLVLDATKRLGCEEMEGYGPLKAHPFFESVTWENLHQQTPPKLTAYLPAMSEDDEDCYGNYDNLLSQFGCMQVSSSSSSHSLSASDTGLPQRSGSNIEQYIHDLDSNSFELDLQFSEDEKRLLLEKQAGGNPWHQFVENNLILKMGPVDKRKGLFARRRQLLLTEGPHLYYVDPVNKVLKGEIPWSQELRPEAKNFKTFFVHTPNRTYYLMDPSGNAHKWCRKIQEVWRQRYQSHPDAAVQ
Procedure: The experimental batches are carried out in a flashplate system with 384 wells/microtitration plate.
In each case, the PDK1 sample His6-PDK1 (1-50) (3.4 nM), the PDK1 substrate biotin-bA-bA-[…] (400 nM), 4 μM ATP (with 0.2μ Ci of ^33P-ATP/well) and the test substance in 50 μl of conventional experimental solution per well are incubated at 30° C. for 60 min. The test substances are employed in corresponding concentrations (if desired in a dilution series). The control is carried out without test substance. The reaction is stopped using standard methods and washed. The activity of the kinase is measured via the incorporated radioactivity in top count. In order to determine the non-specific kinase reaction (blank value), the experimental batches are carried out in the presence of 100 nM staurosporin.
The radioactivity (decompositions per minute) of the blank value (no use of test substance in the presence of staurosporin) is subtracted from all other radioactivity values. The controls (kinase activity without test substance) are set equal to 100 percent and all other radioactivity values (after subtracting the blank value) are expressed set in relation thereto (for example in % of the control).
IC50 values (50% inhibition) are determined with the aid of statistics programmes, such as, for example, RS1.

[2] = target: T2, PDK1 (Homo sapiens, UniProt O15530); test: Cellular testing of PDK1 kinase inhibitors in PC3 cells (Luminex, phospho-T308-PKB); format: cell-based; conditions: 30 min, serum-free
T2 construct: endogenous in cells; host or cells: PC3 cells
T2 sequence (O15530 1-556): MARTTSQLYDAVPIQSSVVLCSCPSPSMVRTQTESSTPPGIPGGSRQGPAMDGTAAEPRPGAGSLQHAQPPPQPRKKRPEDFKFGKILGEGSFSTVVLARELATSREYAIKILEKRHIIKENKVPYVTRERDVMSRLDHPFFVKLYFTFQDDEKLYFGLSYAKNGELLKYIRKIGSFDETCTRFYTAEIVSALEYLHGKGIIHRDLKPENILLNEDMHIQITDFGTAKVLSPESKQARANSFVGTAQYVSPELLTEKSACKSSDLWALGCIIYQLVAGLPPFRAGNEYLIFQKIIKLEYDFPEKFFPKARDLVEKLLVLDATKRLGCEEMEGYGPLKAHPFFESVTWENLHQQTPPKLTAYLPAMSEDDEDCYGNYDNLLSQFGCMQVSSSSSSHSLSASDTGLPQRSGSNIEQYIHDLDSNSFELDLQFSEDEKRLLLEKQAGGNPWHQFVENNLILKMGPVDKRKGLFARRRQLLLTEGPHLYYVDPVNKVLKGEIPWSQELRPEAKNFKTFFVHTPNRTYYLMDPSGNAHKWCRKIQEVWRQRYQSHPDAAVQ
Procedure: Method for the Cellular Testing of PDK1 Kinase Inhibitors in PC3 Cells.
The cellular assay for the determination of the PDK1 kinase activity is carried out as a Luminex assay in the 96-well format. PC3 cells are sown at 20,000 cells per well in 100 μl of medium (45% of […]/45% of Ham's F12/10% of FCS) and incubated on the following day for 30 min with a serial dilution of the test substance (7 concentrations) under serum-free conditions. The cells are subsequently lysed using 90 μl of lysis buffer (20 mM tris/HCl pH 8.0, 150 mM NaCl, 1% of NP40, 10% of glycerol, 1% of phosphatase inhibitor I, 1% of phosphatase inhibitor II, 0.1% of protease inhibitor cocktail III, 0.01% of benzonase) per well, and the lysates are separated off from insoluble cell constituents by means of centrifugation through a 96-well filter plate (0.65 μm). The lysates are incubated overnight at 4° C. with shaking with Luminex beads to which an anti-total PKB antibody is coupled. The detection is carried out on the following day by addition of a phospho-T308-PKB antibody and a species-specific […] secondary antibody. The detection of phospho T308-PKB is carried out by measurement in a Luminex100 instrument by determination of 100 events per cavity in a measurement time of 60 sec. As pharmacological blank, the signals obtained from cells which have been treated with 10 μM staurosporin are subtracted from all other batches. The control value used for maximum phosphorylation of PKB on T308 are the signals from cells which have only been treated with the solvent (0.3% of DMSO). The values of the batches treated with test substance are calculated therefrom as percentage of control, and IC50 values are determined by means of RS 1.

Structure (SMILES)	IC50 [1] [nM]	IC50 [2] [nM]
Cn1cc(-c2cnc3[nH]cc(-c4csc(Cc5ccccc5F)n4)c3c2)cn1 [A4]	1000 to 10000	1000 to 10000
Cn1cc(-c2cnc3[nH]cc(-c4cc(C(C)(O)c5ccccc5F)on4)c3c2)cn1 (centres unmarked) [A6]	0.5 to 1000	0.5 to 1000
Cn1cc(-c2cnc3[nH]cc(-c4csc(Cc5cccc(F)c5F)n4)c3c2)cn1 [A9]	1000 to 10000	1000 to 10000
CCC(O)(c1cccc(F)c1)c1cc(-c2c[nH]c3ncc(-c4cnn(C)c4)cc23)no1 (centres unmarked) [A11]	0.5 to 1000	0.5 to 1000
CC(O)(c1cc(-c2c[nH]c3ncc(-c4cnn(CC(=O)N5CCCCC5)c4)cc23)no1)c1ccccc1F (centres unmarked) [A12]	0.5 to 1000	0.5 to 1000
Cn1cc(-c2cnc3[nH]cc(-c4n[nH]c(Cc5cccc(F)c5)n4)c3c2)cn1 [A14, 3-[5-(3-fluorobenzyl)-1H-1,2,4-triazol-3-yl]-5-(1-methyl-1H-pyrazol-4-yl)-1H-pyrrolo[2,3-b]pyridine]	0.5 to 1000	1000 to 10000
Cn1cc(-c2cnc3[nH]cc(-c4n[nH]c(Cc5ccccc5F)n4)c3c2)cn1 [A15]	0.5 to 1000	1000 to 10000
Cn1cc(-c2cnc3[nH]cc(-c4n[nH]c(Cc5cccc(F)c5F)n4)c3c2)cn1 [A16]	0.5 to 1000	0.5 to 1000
Cn1cc(-c2cnc3[nH]cc(-c4n[nH]c(Cc5ccccc5)n4)c3c2)cn1 [A17]	0.5 to 1000	1000 to 10000
Cn1cc(-c2cnc3[nH]cc(-c4cc(C(C)(O)c5ccccc5F)[nH]n4)c3c2)cn1 (centres unmarked) [A18]	0.5 to 1000	1000 to 10000
Cn1cc(-c2cnc3[nH]cc(-c4nnc(Cc5cccc(F)c5)o4)c3c2)cn1 [A19, 3-[5-(3-fluorobenzyl)-1,3,4-oxadiazol-2-yl]-5-(1-methyl-1H-pyrazol-4-yl)-1H-pyrrolo[2,3-b]pyridine]	0.5 to 1000	1000 to 10000
Cn1cc(-c2cnc3[nH]cc(-c4nnc(Cc5cccc(F)c5F)o4)c3c2)cn1 [A20]	0.5 to 1000	1000 to 10000
Cn1cc(-c2cnc3[nH]cc(-c4nnc(Cc5ccccc5)o4)c3c2)cn1 [A21]	0.5 to 1000	1000 to 10000
Cn1cc(-c2cnc3[nH]cc(-c4nnc(Cc5ccccc5F)o4)c3c2)cn1 [A22]	0.5 to 1000	0.5 to 1000
Cn1cc(-c2cnc3[nH]cc(-c4noc(C(O)c5ccccc5)n4)c3c2)cn1 (centres unmarked) [A23]	0.5 to 1000	1000 to 10000
CC(O)(c1cc(-c2c[nH]c3ncc(-c4cnn(CCO)c4)cc23)no1)c1ccccc1F (centres unmarked) [A24]	0.5 to 1000	0.5 to 1000
CCC(O)(c1cc(-c2c[nH]c3ncc(-c4cnn(C)c4)cc23)no1)c1ccccc1F (centres unmarked) [A25]	0.5 to 1000	0.5 to 1000
C=C(c1cc(-c2c[nH]c3ncc(-c4cnn(C)c4)cc23)n[nH]1)c1ccccc1F [A28]	0.5 to 1000	1000 to 10000
Cn1cc(-c2cnc3[nH]cc(-c4nnc(C(O)c5ccccc5)o4)c3c2)cn1 (centres unmarked) [A29]	0.5 to 1000	1000 to 10000

Continued, values first:

IC50 [1] [nM]	IC50 [2] [nM]	Structure (SMILES)
0.5 to 1000	0.5 to 1000	Cn1cc(-c2cnc3[nH]cc(-c4noc(C(C)(O)c5ccccc5)n4)c3c2)cn1 (centres unmarked) [A31]
0.5 to 1000	0.5 to 1000	Cn1cc(-c2cnc3[nH]cc(-c4cc(C(C)(O)c5cccc(F)c5)on4)c3c2)cn1 (centres unmarked) [A36]
0.5 to 1000	0.5 to 1000	Cn1cc(-c2cnc3[nH]cc(-c4cc(C(C)(O)c5cccc(F)c5)[nH]n4)c3c2)cn1 (centres unmarked) [A37, 1-(3-fluorophenyl)-1-{5-[5-(1-methyl-1H-pyrazol-4-yl)-1H-pyrrolo[2,3-b]pyridin-3-yl]-2H-pyrazol-3-yl}ethanol]
1000 to 10000	1000 to 10000	Cn1cc(-c2cnc3[nH]cc(-c4n[nH]c(C(=O)c5ccccc5)n4)c3c2)cn1 [A39]
0.5 to 1000	1000 to 10000	Cn1cc(-c2cnc3[nH]cc(-c4n[nH]c(C(C)(O)c5ccccc5)n4)c3c2)cn1 (centres unmarked) [A42, 1-{5-[5-(1-methyl-1H-pyrazol-4-yl)-1H-pyrrolo[2,3-b]pyridin-3-yl]-2H-1,2,4-triazol-3-yl}-1-phenylethanol]
0.5 to 1000	1000 to 10000	Cn1cc(-c2cnc3[nH]cc(-c4nnc(C(O)c5ccccc5F)o4)c3c2)cn1 (centres unmarked) [A43]
0.5 to 1000	1000 to 10000	Cn1cc(-c2cnc3[nH]cc(-c4n[nH]c(C(C)(O)c5cccc(F)c5)n4)c3c2)cn1 (centres unmarked) [A44]
0.5 to 1000	1000 to 10000	Cn1cc(-c2cnc3[nH]cc(-c4nnc(C(C)(O)c5ccccc5)o4)c3c2)cn1 (centres unmarked) [A45]
0.5 to 1000	0.5 to 1000	Cn1cc(-c2cnc3[nH]cc(-c4nnc(C(O)c5cccc(F)c5F)o4)c3c2)cn1 (centres unmarked) [A46]
0.5 to 1000	0.5 to 1000	Cn1cc(-c2cnc3[nH]cc(-c4nnc(C(O)c5cccc(F)c5)o4)c3c2)cn1 (centres unmarked) [A47]
0.5 to 1000	0.5 to 1000	Cn1cc(-c2cnc3[nH]cc(-c4nnc(C(C)(O)c5ccccc5F)o4)c3c2)cn1 (centres unmarked) [A48]
0.5 to 1000	1000 to 10000	Cn1cc(-c2cnc3[nH]cc(-c4n[nH]c(C(C)(O)c5ccccc5F)n4)c3c2)cn1 (centres unmarked) [A49]
0.5 to 1000	1000 to 10000	Cn1cc(-c2cnc3[nH]cc(-c4noc(C(C)(O)c5ccccc5F)n4)c3c2)cn1 (centres unmarked) [A50]
0.5 to 1000	1000 to 10000	Cn1cc(-c2cnc3[nH]cc(-c4noc(C(C)(O)c5cccc(F)c5)n4)c3c2)cn1 (centres unmarked) [A51]
0.5 to 1000	1000 to 10000	Cn1cc(-c2cnc3[nH]cc(-c4noc(C(C)(O)c5cccc(F)c5F)n4)c3c2)cn1 (centres unmarked) [A52]
0.5 to 1000	1000 to 10000	Cn1cc(-c2cnc3[nH]cc(-c4n[nH]c(C(C)(O)c5cccc(F)c5F)n4)c3c2)cn1 (centres unmarked) [A54]
0.5 to 1000	1000 to 10000	Cn1cc(-c2cnc3[nH]cc(-c4nnc(C(O)c5ccc(F)cc5)o4)c3c2)cn1 (centres unmarked) [A57, (4-fluorophenyl)-{5-[5-(1-methyl-1H-pyrazol-4-yl)-1H-pyrrolo[2,3-b]pyridin-3-yl]-1,3,4-oxadiazol-2-yl}methanol]
0.5 to 1000	0.5 to 1000	Cn1cc(-c2cnc3[nH]cc(-c4nnc(C(O)c5cccc(Cl)c5)o4)c3c2)cn1 (centres unmarked) [A59]
1000 to 10000	1000 to 10000	Cn1cc(-c2cnc3[nH]cc(-c4nnc(C(O)c5ccc(Cl)cc5)o4)c3c2)cn1 (centres unmarked) [A60]
0.5 to 1000	0.5 to 1000	Cn1cc(-c2cnc3[nH]cc(-c4cc(C(C)(O)c5cccc(F)c5F)on4)c3c2)cn1 (centres unmarked) [A61]
0.5 to 1000	0.5 to 1000	Cn1cc(-c2cnc3[nH]cc(-c4cc(C(C)(O)c5cccc(F)c5F)[nH]n4)c3c2)cn1 (centres unmarked) [A64]
